In general, IC50 refers to the concentration at which inhibition is half-maximal.

32 molecules from patent US11964953B2, “Substituted aminothiazoles as DGKzeta inhibitors for immune activation” (Bayer Aktiengesellschaft, priority 2020, dated 2024) can be followed below.

Sequence of human DGKζ (Q13574 other isoform, or with tags, fused parts or gaps): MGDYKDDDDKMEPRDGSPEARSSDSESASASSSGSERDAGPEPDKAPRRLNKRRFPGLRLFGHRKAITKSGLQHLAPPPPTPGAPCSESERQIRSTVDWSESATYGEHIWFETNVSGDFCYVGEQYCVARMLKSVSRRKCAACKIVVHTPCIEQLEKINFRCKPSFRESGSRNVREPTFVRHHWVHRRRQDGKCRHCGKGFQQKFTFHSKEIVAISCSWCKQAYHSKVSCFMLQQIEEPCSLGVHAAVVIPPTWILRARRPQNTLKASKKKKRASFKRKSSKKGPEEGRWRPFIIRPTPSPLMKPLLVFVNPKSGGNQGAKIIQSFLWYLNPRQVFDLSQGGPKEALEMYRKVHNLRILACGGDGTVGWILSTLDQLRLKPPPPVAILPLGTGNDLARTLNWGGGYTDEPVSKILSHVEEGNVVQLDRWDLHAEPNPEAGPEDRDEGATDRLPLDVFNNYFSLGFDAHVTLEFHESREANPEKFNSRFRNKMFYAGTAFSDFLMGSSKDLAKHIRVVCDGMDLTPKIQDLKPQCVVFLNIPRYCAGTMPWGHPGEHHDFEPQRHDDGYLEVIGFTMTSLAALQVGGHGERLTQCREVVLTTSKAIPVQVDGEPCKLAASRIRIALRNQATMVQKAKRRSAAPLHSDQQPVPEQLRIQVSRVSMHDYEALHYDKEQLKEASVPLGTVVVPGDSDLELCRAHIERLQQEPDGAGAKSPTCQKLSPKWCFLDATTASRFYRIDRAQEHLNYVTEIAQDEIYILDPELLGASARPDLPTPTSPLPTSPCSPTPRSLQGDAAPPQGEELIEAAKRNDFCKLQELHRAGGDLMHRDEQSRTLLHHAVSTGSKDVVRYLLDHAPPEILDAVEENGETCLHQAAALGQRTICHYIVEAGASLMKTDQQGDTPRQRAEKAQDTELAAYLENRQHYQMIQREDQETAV

This assay concerns the target human DGKζ (Homo sapiens (Human), UniProt Q13574). As to the kind of experiment: Human DGKζ kinase activity inhibition assay (ADP-Glo). It counts as biochemical. The note with it: in vitro human DGKζ kinase activity inhibition assay; read-out: IC50. In outline: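 Enzyme was C-terminally FLAG-tagged full-length recombinant human DGKζ from baculovirus-infected insect cells. Substrate preparation used octyl-β-D-glucopyranoside in 50 mM MOPS pH 7.4 with sonication; ADP generated was quantified by ADP-Glo luminescence as activity measure.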
In the case of `CC(C(N)=O)N(c1ccc(OC(F)F)c(F)c1)c1nc(N)c(C(=O)c2ccc(OC(F)F)nc2)s1` (racemic) [Example 209, rac-2-[N-[4-amino-5-[6-(difluoromethoxy)pyridine-3-carbonyl]thiazol-2-yl]-4-(difluoromethoxy)-3-fluoro-anilino]propanamide], the 50% inhibitory concentration (IC50) was determined as 45 nM.

Turning to `CC(C(N)=O)N(c1ccc(OC(F)F)c(F)c1)c1nc(N)c(C(=O)c2ccc(OC(F)F)nc2)s1` (racemic) [Example 210, rac-2-[N-[4-amino-5-[6-(difluoromethoxy)pyridine-3-carbonyl]thiazol-2-yl]-4-(difluoromethoxy)-3-fluoro-anilino]propanamide], the half-maximal inhibitory concentration (IC50) was 69 nM. The result for `CC(C(N)=O)N(c1ccc(OC(F)(F)F)c(Cl)c1)c1nc(N)c(C(=O)c2ccccc2)s1` (racemic) [Example 211, rac-2-[N-(4-amino-5-benzoyl-thiazol-2-yl)-3-chloro-4-(trifluoromethoxy)anilino]propanamide] reads 183 nM.

With `COc1ccc(C(=O)c2sc(N(c3ccc4c(c3)OC(F)(F)O4)C(C)C(N)=O)nc2N)cc1` (racemic) [Example 212, rac-2-[[4-amino-5-(4-methoxybenzoyl)thiazol-2-yl]-(2,2-difluoro-1,3-benzodioxol-5-yl)amino]propanamide], the IC50 was 41 nM.

For the molecule `CC(C(N)=O)N(c1ccc2c(c1)OC(F)(F)O2)c1nc(N)c(C(=O)c2ccc(Cl)cc2)s1` (racemic) [Example 213, rac-2-[[4-amino-5-(4-chlorobenzoyl)thiazol-2-yl]-(2,2-difluoro-1 ,3-benzodioxol-5-yl)amino]propanamide], the IC50 was determined as 42 nM. As for `CC(C(N)=O)N(c1ccc2c(c1)OC(F)(F)O2)c1nc(N)c(C(=O)c2ccc(OC(F)F)cc2)s1` (racemic) [Example 214, rac-2-[[4-amino-5-[4-(difluoromethoxy)benzoyl]thiazol-2-yl]-(2,2-difluoro-1,3-benzodioxol-5-yl)amino]propanamide], the IC50 came out at 16 nM. Turning to `CC(C(N)=O)N(c1ccc2c(c1)OC(F)(F)O2)c1nc(N)c(C(=O)c2ccncc2)s1` (racemic) [Example 215, rac-2-[[4-amino-5-(pyridine-4-carbonyl)thiazol-2-yl]-(2,2-difluoro-1,3-benzodioxol-5-yl)amino]propanamide], the concentration for half-maximal inhibition (IC50) was determined as 279 nM. To `CC(C(N)=O)N(c1ccc2c(c1)OC(F)(F)O2)c1nc(N)c(C(=O)c2ccc(OC(F)F)nc2)s1` (racemic) [Example 216, rac-2-[[4-amino-5-[6-(difluoromethoxy)pyridine-3-carbonyl]thiazol-2-yl]-(2,2-difluoro-1,3-benzodioxol-5-yl)amino]propanamide] belongs 32 nM; to `COc1ccc(C(=O)c2sc(N(c3ccc(OC(F)(F)F)c(F)c3)C(C)C(N)=O)nc2N)cc1` (racemic) [Example 217, rac-2-[N-[4-amino-5-(4-methoxybenzoyl)thiazol-2-yl]-3-fluoro-4-(trifluoromethoxy)anilino]propanamide], 41 nM. Take `CC(C(N)=O)N(c1ccc(OC(F)(F)F)c(F)c1)c1nc(N)c(C(=O)c2ccc(Cl)cc2)s1` (racemic) [Example 218, rac-2-[N-[4-amino-5-(4-chlorobenzoyl)thiazol-2-yl]-3-fluoro-4-(trifluoromethoxy)anilino]propanamide]: the half-inhibitory concentration (IC50) worked out at 64 nM. As to `CC(C(N)=O)N(c1ccc(OC(F)(F)F)c(F)c1)c1nc(N)c(C(=O)c2ccc(OC(F)F)cc2)s1` (racemic) [Example 219, rac-2-[N-[4-amino-5-[4-(difluoromethoxy)benzoyl]thiazol-2-yl]-3-fluoro-4-(trifluoromethoxy)anilino]propanamide], the half-maximal inhibitory concentration (IC50) worked out at 13 nM.

Take `CC(C(N)=O)N(c1ccc(OC(F)(F)F)c(F)c1)c1nc(N)c(C(=O)c2ccncc2)s1` (racemic) [Example 220, rac-2-[N-[4-amino-5-(pyridine-4-carbonyl)thiazol-2-yl]-3-fluoro-4-(trifluoromethoxy)anilino]propanamide]: the 50% inhibitory concentration (IC50) came out at 219 nM.

Regarding `CC(C(N)=O)N(c1ccc(OC(F)(F)F)c(F)c1)c1nc(N)c(C(=O)c2ccc(OC(F)F)nc2)s1` (racemic) [Example 221, rac-2-[N-[4-amino-5-[6-(difluoromethoxy)pyridine-3-carbonyl]thiazol-2-yl]-3-fluoro-4-(trifluoromethoxy)anilino]propanamide], the half-maximal inhibitory concentration (IC50) turned out to be 31 nM. The result for `COc1ccc(C(=O)c2sc(N(c3ccc(OC(F)(F)F)c(Cl)c3)C(C)C(N)=O)nc2N)cc1` (racemic) [Example 222, rac-2-[N-[4-amino-5-(4-methoxybenzoyl)thiazol-2-yl]-3-chloro-4-(trifluoromethoxy)anilino]propanamide] reads 108 nM; that for `CC(C(N)=O)N(c1ccc(OC(F)(F)F)c(Cl)c1)c1nc(N)c(C(=O)c2ccc(Cl)cc2)s1` (racemic) [Example 223, rac-2-[N-[4-amino-5-(4-chlorobenzoyl)thiazol-2-yl]-3-chloro-4-(trifluoromethoxy)anilino]propanamide], 235 nM. The result for `CC(C(N)=O)N(c1ccc(OC(F)(F)F)c(Cl)c1)c1nc(N)c(C(=O)c2ccc(OC(F)F)cc2)s1` (racemic) [Example 224, rac-2-[N-[4-amino-5-[4-(difluoromethoxy)benzoyl]thiazol-2-yl]-3-chloro-4-(trifluoromethoxy)anilino]propanamide] reads 45 nM; that for `CC(C(N)=O)N(c1ccc(OC(F)(F)F)c(Cl)c1)c1nc(N)c(C(=O)c2ccncc2)s1` (racemic) [Example 225, rac-2-[N-[4-amino-5-(pyridine-4-carbonyl)thiazol-2-yl]-3-chloro-4-(trifluoromethoxy)anilino]propanamide], 252 nM. To `CC(C(N)=O)N(c1ccc(OC(F)(F)F)c(Cl)c1)c1nc(N)c(C(=O)c2ccc(OC(F)F)nc2)s1` (racemic) [Example 226, rac-2-[N-[4-amino-5-[6-(difluoromethoxy)pyridine-3-carbonyl]thiazol-2-yl]-3-chloro-4-(trifluoromethoxy)anilino]propanamide] belongs 87 nM. As to `COc1ccc(N(c2nc(N)c(C(=O)c3ccccc3)s2)C(C)C(N)=O)cn1` (racemic) [Example 227, rac-2-[(4-amino-5-benzoyl-thiazol-2-yl)-(6-methoxy-3-pyridyl)amino]propanamide], the half-inhibitory concentration (IC50) amounted to 393 nM.

For `CC(C(N)=O)N(c1ccc(OC(F)(F)F)nc1)c1nc(N)c(C(=O)c2ccccc2)s1` (racemic) [Example 228, rac-2-[(4-amino-5-benzoyl-thiazol-2-yl)-[6-(trifluoromethoxy)-3-pyridyl]amino]propanamide], the IC50 is 218 nM.

As to `CC(C(N)=O)N(c1ccc(OC(F)F)nc1)c1nc(N)c(C(=O)c2ccccc2)s1` (racemic) [Example 229, rac-2-[(4-amino-5-benzoyl-thiazol-2-yl)-[6-(difluoromethoxy)-3-pyridyl]amino]propanamide], the IC50 came to 193 nM.

`CC(C(N)=O)N(c1ccc(C(F)(F)F)nc1)c1nc(N)c(C(=O)c2ccccc2)s1` (racemic) [Example 230, rac-2-[(4-amino-5-benzoyl-thiazol-2-yl)-[6-(trifluoromethyl)-3-pyridyl]amino]propanamide]: the IC50 is 199 nM. As to `CC(C(N)=O)N(c1ccc(C(F)F)nc1)c1nc(N)c(C(=O)c2ccccc2)s1` (racemic) [Example 231, rac-2-[(4-amino-5-benzoyl-thiazol-2-yl)-[6-(difluoromethyl)-3-pyridyl]amino]propanamide], the half-maximal inhibitory concentration (IC50) turned out to be 662 nM. To `CC(C(N)=O)N(c1ccc(Cl)nc1)c1nc(N)c(C(=O)c2ccccc2)s1` (racemic) [Example 232, rac-2-[(4-amino-5-benzoyl-thiazol-2-yl)-(6-chloro-3-pyridyl)amino]propanamide] belongs 112 nM; to `CC(C(N)=O)N(c1ccc(F)nc1)c1nc(N)c(C(=O)c2ccccc2)s1` (racemic) [Example 233, rac-2-[(4-amino-5-benzoyl-thiazol-2-yl)-(6-fluoro-3-pyridyl)amino]propanamide], 267 nM. As for `Cc1ccc(N(c2nc(N)c(C(=O)c3ccccc3)s2)C(C)C(N)=O)cn1` (racemic) [Example 234, rac-2-[(4-amino-5-benzoyl-thiazol-2-yl)-(6-methyl-3-pyridyl)amino]propanamide], the IC50 amounted to 1640 nM. To `CC(C(N)=O)N(c1ccc(F)c(OC(F)(F)F)c1)c1nc(N)c(C(=O)c2ccccc2)s1` (racemic) [Example 235, rac-2-[N-(4-amino-5-benzoyl-thiazol-2-yl)-4-fluoro-3-(trifluoromethoxy)anilino]propanamide] belongs 542 nM; to `CC(C(N)=O)N(c1ccc(Cl)c(OC(F)(F)F)c1)c1nc(N)c(C(=O)c2ccccc2)s1` (racemic) [Example 236, rac-2-[N-(4-amino-5-benzoyl-thiazol-2-yl)-4-chloro-3-(trifluoromethoxy)anilino]propanamide], 730 nM; to `CC(C(N)=O)N(c1ccc(F)c(OC(F)F)c1)c1nc(N)c(C(=O)c2ccccc2)s1` (racemic) [Example 237, rac-2-[N-(4-amino-5-benzoyl-thiazol-2-yl)-3-(difluoromethoxy)-4-fluoro-anilino]propanamide], 749 nM.

Consider `CC(C(N)=O)N(c1ccc(Cl)c(OC(F)F)c1)c1nc(N)c(C(=O)c2ccccc2)s1` (racemic) [Example 238, rac-2-[N-(4-amino-5-benzoyl-thiazol-2-yl)-4-chloro-3-(difluoromethoxy)anilino]propanamide], for which the IC50 is 667 nM. As for `CC(C(N)=O)N(c1nc(N)c(C(=O)c2ccccc2)s1)c1ccc(OC(F)(F)F)cc1F` (racemic) [Example 239, rac-2-[N-(4-amino-5-benzoyl-thiazol-2-yl)-2-fluoro-4-(trifluoromethoxy)anilino]propanamide], the IC50 was found to be 236 nM. Consider `CC(C(N)=O)N(c1nc(N)c(C(=O)c2ccccc2)s1)c1ccc(OC(F)(F)F)cc1Cl` (racemic) [Example 240, rac-2-[N-(4-amino-5-benzoyl-thiazol-2-yl)-2-chloro-4-(trifluoromethoxy)anilino]propanamide], for which the IC50 was 1330 nM.
